# Experimental data published in patent US12194070B2, “Traditional chinese medicine compound for improving testicular dysfunction, preparation method and application thereof” (Ningxia Medical University, priority 2023, dated 2025).
# Counter-ions that a name gives are not always drawn.
# Assays:
# Type in all cases: in vivo, C57BL/6J mice
# mouse testis tissue = assay: HE staining of testis tissue (testicular morphology); conditions: HE staining 200x; metformin 200 mg/kg/d, after 30 days
# PI3K = assay: Western blot of PI3K expression in testis; conditions: Western blot gray values, metformin 200 mg/kg/d, after 30 days
# Description: (§1) Protein samples are taken and added into concentrated gel of an electrophoresis tank for running the gel, transferring the protein from the gel to the membrane, bovine albumin (BSA) blocking and membrane washing, then primary antibodies (including PI3K (rabbit antibody), AKT (rabbit antibody), p-AKT (rabbit antibody), β-actin (rabbit antibody), Bcl-2 (rabbit antibody) and β-actin (mouse antibody) diluted at the concentration 1:1000) are added for incubation and stay overnight in the refrigerator at 4° C.; the next day, the membrane is washed, after the secondary antibodies (including: a mouse secondary antibody (1:5000) and a rabbit secondary antibody (1:2000)) are added for incubation and blocked, the membrane is washed, followed by development, and then gray values are analyzed. Data is analyzed using GraphPad Prism 8.4 statistical software. Counting data of experimental results is expressed as rate/percentage (%), and measurement data is expressed as x±s. The one-way ANOVA is used to compare the groups, and the difference is statistically significant with P<0.05.
# [1] = test system: mice with testicular dysfunction caused by obese type 2 diabetes mellitus; assay: Oral glucose tolerance test (OGTT); conditions: metformin 200 mg/kg/d, after 30 days; blood glucose 0-120 min after gavage
# Description: (§2) 2.3 After 30 days of administration of each group in step 2.2, the following tests are performed in each group.
# (§3) OGTT test: the mice are weighed after 15 h fast, fasting blood glucose (FPG) of the mice is measured separately, and the amount of glucose is determined based on the mice's weight. Blood glucose fluctuations are then monitored at 15 min, 30 min, 60 min and 120 min after gavage. Data is analyzed using GraphPad Prism 8.4 statistical software. Counting data of experimental results is expressed as rate/percentage (%), and measurement data is expressed as x±s. The one-way ANOVA is used to compare the groups, and the difference is statistically significant with P<0.05.
# [2] = test system: mice with testicular dysfunction caused by obese type 2 diabetes mellitus; assay: Fasting blood glucose (FPG); conditions: metformin 200 mg/kg/d, day 30
# Description: as §3
# (§4) ITT test: the mice are weighed after 5 h fast, the insulin dosage is calculated, and FPG of the mice is measured. Blood glucose fluctuations are then monitored at 15 min, 30 min, 60 min and 120 min after insulin is given. Data is analyzed using GraphPad Prism 8.4 statistical software. Counting data of experimental results is expressed as rate/percentage (%), and measurement data is expressed as x±s. The one-way ANOVA is used to compare the groups, and the difference is statistically significant with P<0.05.
# [3] = test system: mice with testicular dysfunction caused by obese type 2 diabetes mellitus; assay: Insulin tolerance test (ITT); conditions: metformin 200 mg/kg/d, after 30 days; blood glucose 0-120 min after insulin
# Description: as §2, §4
# T-SOD = assay: Serum T-SOD by colorimetry; conditions: metformin 200 mg/kg/d, after 30 days
# Description: (§5) The levels of T-SOD, MDA and GSH-px in serum are measured by colorimetry, and the level of testosterone (T) in serum is measured by enzyme linked immunosorbent assay (ELISA), all according to the manufacturer's instructions. Data is analyzed using GraphPad Prism 8.4 statistical software. Counting data of experimental results is expressed as rate/percentage (%), and measurement data is expressed as x±s. The one-way ANOVA is used to compare the groups, and the difference is statistically significant with P<0.05.
# [4] = test system: sperm of obese type 2 diabetic mice; assay: Analysis of semen parameters; conditions: metformin 200 mg/kg/d, after 30 days
# Description: One side of epididymis in each group is put into a 12-well plate, diluted with 500 μL of normal saline, fully cut into pieces by a tissue scissor, incubated in a 37° C. incubator, and filtered by a 200-mesh sieve, and 20 μL of filtrate is collected on a cell counting plate, observed under a microscope, and the number of sperm is counted. Sperm viability, sperm motility and malformation rate are counted respectively by Yin Hong aniline black and Diff-Quick staining. Data is analyzed using GraphPad Prism 8.4 statistical software. Counting data of experimental results is expressed as rate/percentage (%), and measurement data is expressed as x±s. The one-way ANOVA is used to compare the groups, and the difference is statistically significant with P<0.05.
# [5] = test system: obese type 2 diabetic mice; assay: Testis, epididymis and seminal vesicle gland coefficients; conditions: metformin 200 mg/kg/d, after 30 days
# p-AKT = assay: Western blot of p-AKT expression in testis; conditions: Western blot gray values, metformin 200 mg/kg/d, after 30 days
# Description: as §1
# sperm and egg cells = assay: In vitro fertilization with sperm of the treated mice
# Text: The sperm of the mice in each group is taken for fertilization in vitro.
# Bcl-2 = assay: Western blot of Bcl-2 expression in testis; conditions: Western blot gray values, metformin 200 mg/kg/d, after 30 days
# Description: as §1
# MDA = assay: Serum MDA by colorimetry; conditions: metformin 200 mg/kg/d, after 30 days
# Description: as §5
# [6] = test system: obese type 2 diabetic mice; assay: Cage experiment (fertility)
# Description: Female mice of childbearing age are caged with male mice of each group in the ratio of 2:1 for one week, and their fertility is tested by the birth situation.
# [7] = Body weight of mice with testicular dysfunction caused by obese type 2 diabetes mellitus; design: AUC of weight before treatment: unit not given beside the values
# Description: With six mice in each group, the mice are randomly assigned after one week of adaptive rearing to a control group (Con), a model group (Model), a high-dose compound group (YPBS-H), a low-dose compound group (YPBS-L) and a metformin group (Metformin, Met). The six mice in the control group are given regular feed, the remaining mice are fed with 60% high-fat feed, the weight of each of mice is recorded every 7 days during the feeding.
# The mice in each group have been successfully established after feeding for 16 weeks in step 2.1, and the mice in each group are given medicine treatment as follows.
# The high-dose compound group (YPBS-H): the traditional Chinese medicine compound obtained in the embodiment 1 is given at a dose of 4 grams per kilogram per day (g/kg/d) per animal.
# The low-dose compound group (YPBS-L): the traditional Chinese medicine compound obtained in the embodiment 1 is given at a dose of 2 g/kg/d per animal.
# The metformin group (Met): the metformin is given at a dose of 200 mg/kg/d per animal.
# During the administration, the mice are fed with the normal feed and drink water normally, and the weight changes of mice are observed. Data is analyzed using GraphPad Prism 8.4 statistical software. Counting data of experimental results is expressed as rate/percentage (%), and measurement data is expressed as x (i.e., mean)±s. The one-way analysis of variance (ANOVA) is used to compare the groups, and the difference is statistically significant with P<0.05.
# testosterone (T) = assay: Serum testosterone by ELISA; conditions: metformin 200 mg/kg/d, after 30 days
# Description: as §5
# GSH-px = assay: Serum GSH-Px by colorimetry; conditions: metformin 200 mg/kg/d, after 30 days
# Description: as §5
# [8] = after treatment, dose group not stated
# [9] = of 10 egg cells, sperm of mice given metformin 200 mg/kg/d
# [10] = females caged with males 2:1 for one week, males given metformin 200 mg/kg/d
smiles,measurement,setting,value
"CN(C)C(=N)N=C(N)N [Met, metformin hydrochloride]",testicular morphology compared to the model group,mouse testis tissue,considerably improved
same,PI3K/β-actin,PI3K,0.945 ± 0.056^Δ
same,OGTT-AUC,[1],1660 ± 70.3^Δ
same,FPG on the 30th day after treatment,[2],5.5 ± 0.9^Δ
same,ITT-AUC,[3],760.7 ± 49.5^Δ
same,T-SOD,T-SOD,168.4 ± 34.7^Δ U/mgprot
same,Sperm count,[4],85.02 ± 10.55^Δ 10^6/L
same,Sperm malformation rate,[4],68.18 ± 4.12^Δ %
same,Sperm motility,[4],34.55 ± 0.37^Δ %
same,Sperm viability,[4],43.84 ± 3.59^Δ %
same,Epididymis coefficient,[5],0.33 ± 0.03^Δ %
same,Seminal vesicle gland coefficient,[5],1.21 ± 0.06^Δ %
same,Testis coefficient,[5],0.65 ± 0.04^Δ %
same,p-AKT/AKT,p-AKT,0.635 ± 0.141
same,binding rate of sperm and egg cells,sperm and egg cells; [8],increases
same,division of fertilized egg cells,sperm and egg cells; [8],divide normally
same,Number of division of fertilized eggs within 24 hours,sperm and egg cells; [9],7
same,Sperm and egg binding number,sperm and egg cells; [9],7
same,Bcl-2/β-actin,Bcl-2,1.020 ± 0.076^Δ
same,MDA,MDA,5.6 ± 1.5^Δ umol/L
same,fertility of the mice,[6]; [8],"improved, reaching the normal fertility level"
same,Average number of offspring,[6]; [10],5.3
same,Pregnancy rate,[6]; [10],50%
same,Vaginal suppository,[6]; [10],50%
same,AUC of weight before treatment,"[7]; before treatment (16 weeks high-fat feed), metformin group",613.8 ± 5.3^Δ
same,AUC of weight after treatment,"[7]; metformin 200 mg/kg/d, 30 days",1243.0 ± 12.0^Δ
same,Weight on the 30th day after treatment,"[7]; metformin 200 mg/kg/d, day 30",37.9 ± 2.2^Δ g
same,Testosterone T,testosterone (T),5.06 ± 1.42 ng/mL
same,GSH-Px,GSH-px,2206.0 ± 535.6^Δ umol/L
